Where two headings read alike, the source gives them in different places.
Test system: IL-1β production in PMA-differentiated THP-1 cells
Test: IL-1β production in PMA-differentiated THP-1 cells stimulated with gramicidin (hTHP-1 assay containing 2% fetal bovine serum)
Assay type: cell-based, human
Conditions: 2% fetal bovine serum, read-out: hTHP-1 IC50 (Average IC50 of compounds in hTHP-1 assay)
Experimental: Procedure 1: IL-1β Production in PMA-Differentiated THP-1 Cells Stimulated with Gramicidin.
THP-1 cells were purchased from the American Type Culture Collection and sub-cultured according to instructions from the supplier. Cells were cultured in complete RPMI 1640 (containing 10% heat inactivated FBS, penicillin (100 units/ml) and streptomycin (100 μg/ml)), and maintained in log phase prior to experimental setup. Prior to the experiment, compounds were dissolved in dimethyl sulfoxide (DMSO) to generate a 30 mM stock. The compound stock was first pre-diluted in DMSO to 3, 0.34, 0.042 and 0.0083 mM intermediate concentrations and subsequently spotted using Echo550 liquid handler into an empty 384-well assay plate to achieve desired final concentration (e.g. 100, 33, 11, 3.7, 1.2, 0.41, 0.14, 0.046, 0.015, 0.0051, 0.0017 μM). DMSO was backfilled in the plate to achieve a final DMSO assay concentration of 0.37%. The plate was then sealed and stored at room temperature until required.
THP-1 cells were treated with PMA (Phorbol 12-myristate 13-acetate) (20 ng/ml) for 16-18 hours. On the day of the experiment the media was removed and adherent cells were detached with trypsin for 5 minutes. Cells were then harvested, washed with complete RPMI 1640, spun down, and resuspended in RPMI 1640 (containing 2% heat inactivated FBS, penicillin (100 units/ml) and streptomycin (100 μg/ml). The cells were plated in the 384-well assay plate containing the spotted compounds at a density of 50,000 cells/well (final assay volume 50 μl). Cells were incubated with compounds for 1 hour and then stimulated with gramicidin (5 μM) (Enzo) for 2 hours. Plates were then centrifuged at 340 g for 5 min. Cell free supernatant (40 μL) was collected using a 96-channel PlateMaster (Gilson) and the production of IL-1β was evaluated by HTRF (cisbio). The plates were incubated for 18 h at 4° C. and read using the preset HTRF program (donor emission at 620 nm, acceptor emission at 668 nm) of the SpectraMax i3x spectrophotometer (Molecular Devices, software SoftMax 6). A vehicle only control and a dose titration of CRID3 (100-0.0017 μM) were run concurrently with each experiment.
Procedure 2: IL-1β Production in PMA-Differentiated THP-1 Cells Stimulated with Gramicidin.
THP-1 cells were purchased from the American Type Culture Collection and sub-cultured according to instructions from the supplier. Prior to experiments, cells were cultured in complete RPMI 1640 (containing 10% heat inactivated FBS, penicillin (100 units/ml) and streptomycin (100 μg/ml)), and maintained in log phase prior to experimental setup. Prior to the experiment THP-1 were treated with PMA (Phorbol 12-myristate 13-acetate) (20 ng/ml) for 16-18 hours. Compounds were dissolved in dimethyl sulfoxide (DMSO) to generate a 30 mM stock. On the day of the experiment the media was removed and adherent cells were detached with trypsin for 5 minutes. Cells were then harvested, washed with complete RPMI 1640, spun down, resuspended in RPMI 1640 (containing 2% heat inactivated FBS, penicillin (100 units/ml) and streptomycin (100 μg/ml). The cells were plated in a 384-well plate at a density of 50,000 cells/well (final assay volume 50 μl). Compounds were first dissolved in assay medium to obtain a 5× top concentration of 500 μM. 10 step dilutions (1:3) were then undertaken in assay medium containing 1.67% DMSO. 5× compound solutions were added to the culture medium to achieve desired final concentration (e.g. 100, 33, 11, 3.7, 1.2, 0.41, 0.14, 0.046, 0.015, 0.0051, 0.0017 μM). Final DMSO concentration was at 0.37%. Cells were incubated with compounds for 1 hour and then stimulated with gramicidin (5 μM) (Enzo) for 2 hours. Plates were then centrifuged at 340 g for 5 min. Cell free supernatant (40 μL) was collected using a 96-channel PlateMaster (Gilson) and the production of IL-1β was evaluated by HTRF (cisbio). A vehicle only control and a dose titration of CRID3 (100-0.0017 μM) were run concurrently with each experiment. […]

[1] = Homo sapiens, THP-1, Table B1, class symbols
[2] = Homo sapiens, THP-1, Table B2, cells printed as numeric bound
[3] = Homo sapiens, THP-1, Table B1, cells printed as numeric bound
[4] = Homo sapiens, THP-1, Table B2, class symbols

## CCc1c2c(cc(C(C)C)c1CC(=O)N=S(N)(=O)c1cnc(C(C)(C)O)s1)COC2 (stereo not shown) [Example 259, N-(amino(2-(2-hydroxypropan-2-yl)thiazol-5-yl)(oxo)-λ^6-sulfaneylidene)-2-(4-ethyl-6-isopropyl-1,3-dihydroisobenzofuran-5-yl)acetamide]
[1]
  IC50: 5 to 30 µM

## CC(C)c1cc2c(cnn2C)c(C(C)C)c1CC(=O)N=S(N)(=O)c1cnc(C(C)(C)O)s1 (stereo not shown) [Example 262, N-(amino(2-(2-hydroxypropan-2-yl)thiazol-5-yl)(oxo)-λ^6-sulfaneylidene)-2-(4,6-diisopropyl-1-methyl-1H-indazol-5-yl)acetamide]
[1]
  IC50: 5 to 30 µM

## CC(C)c1cc(C#N)cc(C(C)C)c1CC(=O)N=[S@](=O)(NC#N)c1ncc(C(C)(C)O)s1 [Example 365]
[2]
  IC50: > 30 µM

## CC(C)c1cnc(F)c(C(C)C)c1CC(=O)N=S(N)(=O)c1cnc(C(C)(C)O)s1 (single isomer, unassigned) [Example 316, (S) or (R)-N-(amino(2-(2-hydroxypropan-2-yl)thiazol-5-yl)(oxo)-λ^6-sulfaneylidene)-2-(2-fluoro-3,5-diisopropylpyridin-4-yl)acetamide]
[3]
  IC50: > 30 µM

## COc1ccc(C(C)(C)O)cc1S(N)(=O)=NC(=O)Cc1c(C(C)C)cc(C#N)cc1C(C)C (racemic) [Example 388, (R) and (S)—N-(amino(5-(2-hydroxypropan-2-yl)-2-methoxyphenyl)(oxo)-λ^6-sulfaneylidene)-2-(4-cyano-2,6-diisopropylphenyl)acetamide]
[2]
  IC50: > 30 µM

## CC(C)c1cc(C#N)c(F)c(C(C)C)c1CC(=O)N=S(=O)(NC#N)c1cnc(C(O)CO)s1 (stereo not shown) [Example 372, N-(cyanamido(2-(1,2-dihydroxyethyl)thiazol-5-yl)(oxo)-λ^6-sulfaneylidene)-2-(4-cyano-3-fluoro-2,6-diisopropylphenyl)acetamide]
[4]
  IC50: 5 to 30 µM

## CCc1cc2c(c(C(C)C)c1CC(=O)N=S(N)(=O)c1sc(C(C)(C)O)cc1F)COC2 (single isomer, unassigned) [Example 297, (R) or (S)-N-(amino (3-fluoro-5-(2-hydroxypropan-2-yl)thiophen-2-yl)(oxo)-λ^6-sulfaneylidene)-2-(6-ethyl-4-isopropyl-1,3-dihydroisobenzofuran-5-yl)acetamide]
Table B1, class symbols
  IC50: 1 to 5 µM

## COc1ccc(C(C)(C)O)cc1[S@@](=O)(=NC(=O)Cc1c(C(C)C)cc(C#N)cc1C(C)C)NC#N [Example 378, (R)-N-(cyanamido(5-(2-hydroxypropan-2-yl)-2-methoxyphenyl)(oxo)-λ^6-sylfaneylidene)-2-(4-cyano-2,6-diisopropylphenyl)acetamide]
[4]
  IC50: 5 to 30 µM

## CC(C)c1ccc(F)c(C(C)C)c1CC(=O)N=S(N)(=O)c1cc(C(C)(C)O)cs1 (single isomer, unassigned) [Example 160, (S) or (R)-N-(amino(4-(2-hydroxypropan-2-yl)thiophen-2-yl)(oxo)-λ^6-sulfaneylidene)-2-(3-fluoro-2,6-diisopropylphenyl) acetamide]
Table B1, class symbols
  IC50: 0.2 to 1 µM

## Cc1nc(C(C)(C)O)sc1S(N)(=O)=NC(=O)Cc1c(C(C)C)cc(OC(F)F)cc1C(C)C (single isomer, unassigned) [Example 84, (S)- or (R)-2-(4-(difluoromethoxy)-2,6-diisopropylphenyl)-N-(2-(2-hydroxypropan-2-yl)-4-methylthiazol-5-ylsulfonimidoyl)acetamide]
Table B1, class symbols
  IC50: 0.04 to 0.2 µM

## CC(C)c1cnc(F)c(C(C)C)c1CC(=O)N=S(N)(=O)c1cnc(C(C)(C)O)s1 (single isomer, unassigned) [Example 315, (R) or (S)-N-(amino(2-(2-hydroxypropan-2-yl)thiazol-5-yl)(oxo)-λ^6-sulfaneylidene)-2-(2-fluoro-3,5-diisopropylpyridin-4-yl)acetamide]
[1]
  IC50: 5 to 30 µM

## CC(C)c1cc2c(c(C(C)C)c1CC(=O)N=[S@@](N)(=O)c1cnc(C(C)(C)O)s1)COC2(C)C [Example 340, (R)-N-(amino(2-(2-hydroxypropan-2-yl)thiazol-5-yl)(oxo)-λ^6-sulfaneylidene)-2-(4,6-diisopropyl-1,1-dimethyl-1,3-dihydroisobenzofuran-5-yl)acetamide]
[3]
  IC50: > 30 µM

## CC(C)c1cc(C#N)cc(C(C)C)c1CC(=O)N=S(N)(=O)c1nc(CO)c(C(C)(C)O)s1 (single isomer, unassigned) [Example 385, (R) or (S)-N-(amino(4-(hydroxymethyl)-5-(2-hydroxypropan-2-yl)thiazol-2-yl)(oxo)-λ^6-sulfaneylidene)-2-(4-cyano-2,6-diisopropylphenyl)acetamide]
Table B2, class symbols
  IC50: 0.2 to 1 µM

## CCn1cc(F)c(S(N)(=O)=NC(=O)Cc2c(C(C)C)cc3c(c2C(C)C)OC(F)(F)O3)n1 (single isomer, unassigned) [Example 400, (R) or (S)-N-(amino(1-ethyl-4-fluoro-1H-pyrazol-3-yl)(oxo)-λ^6-sulfaneylidene)-2-(2,2-difluoro-4,6-diisopropylbenzo[d][1,3]dioxol-5-yl)acetamide]
Table B2, class symbols
  IC50: 0.2 to 1 µM

## CC(C)c1cc(C#N)cc(C(C)C)c1CC(=O)N=S(N)(=O)c1sc(C(C)(C)O)nc1CO (single isomer, unassigned) [Example 65]
Table B1, class symbols
  IC50: 5 to 30 µM

## CC(C)c1cc(C(F)F)cc(C(C)C)c1CC(=O)N=S(=O)(NC(=O)Cc1c(C(C)C)cc(C(F)F)cc1C(C)C)c1ccc(CN(C)C)nc1 (stereo not shown) [Example 390, 2-(4-(Difluoromethyl)-2,6-diisopropylphenyl)-N-((2-(4-(difluoromethyl)-2,6-diisopropylphenyl)acetamido)(6-((dimethylamino)methyl)pyridin-3-yl)(oxo)-λ^6-sulfaneylidene)acetamide]
[2]
  IC50: > 30 µM

## CC(C)c1cc2c(c(C(C)C)c1CC(=O)N=S(N)(=O)c1cnc(C(C)(C)O)s1)COC2 (single isomer, unassigned) [Example 184, (S) or (R)-N-(amino(2-(2-hydroxypropan-2-yl)thiazol-5-yl)(oxo)-λ^6-sulfaneylidene)-2-(4,6-diisopropyl-1,3-dihydro-isobenzofuran-5-yl)acetamide]
Table B1, class symbols
  IC50: 5 to 30 µM

## CC(C)c1cc(C#N)nc(C(C)C)c1CC(=O)NS(=N)(=O)c1sc(C(C)(C)O)nc1CO (stereo not shown) [Example 237, 2-(6-cyano-2,4-diisopropylpyridin-3-yl)-N-(4-(hydroxymethyl)-2-(2-hydroxypropan-2-yl)thiazole-5-sulfonimidoyl)acetamide]
[1]
  IC50: 5 to 30 µM

## CC(C)c1cc2c(c(C(C)C)c1CC(=O)N=S(N)(=O)c1cnc(C(C)(C)O)s1)COC2 (single isomer, unassigned) [Example 183, (R) or (S)-N-(amino(2-(2-hydroxypropan-2-yl)thiazol-5-yl)(oxo)-λ^6-sulfaneylidene)-2-(4,6-diisopropyl-1,3-dihydro-isobenzofuran-5-yl)acetamide]
Table B1, class symbols
  IC50: 0.2 to 1 µM
